Experimental data published in patent publication US7229621B2, “Method to enhance the immunogenicity of an antigen” (Torrey Pines Institute for Molecular Studies, priority 1998, dated 2007).

How the values were obtained:
[1] = test system: Langerhans cells (immature dendritic cells); assay: FITC screening assay: Langerhans/dendritic cell migration to draining inguinal lymph node after topical FITC in acetone plus migration inducer; type: in vivo, C57BL/6 mice; conditions: for Amt. Antigen/DC (mean fluorescence intensity of the dendritic cells) / Total DC (FITC+ plus FITC- dendritic cells per lymph node) / Antigen^+ DC (FITC+ MHC class II^Hi cells per lymph node): FITC 5 mg/ml in 50:50 acetone and test agent; for Amt. Antigen/DC (mean fluorescence intensity of the dendritic cells) / Total DC (FITC+ plus FITC- dendritic cells per lymph node): 48 hrs later; for Antigen^+ DC (FITC+ MHC class II^Hi cells per lymph node): inguinal lymph nodes 48 hrs later; for effect on FITC+ and total dendritic cell migration into the lymph node: topical FITC in acetone plus agent on shaved abdominal skin, 2 days after treatment (FIG. 1)
Source text: Fluorescein isothiocyanate (FITC) has been used extensively by the inventor and others, to characterize Langerhans cell migration. FITC is a small (389 Da) non-peptide, largely lipophilic molecule, capable of crossing the stratum corneum. The antigenicity of FITC is due to the reactivity of its isothiocyanate group (—N═C═S) with free amino groups, permitting it to be covalently bound to proteins and/or peptides. C57BL/6 mice received the following treatments: 1) none; 2) shaving of the abdominal skin only; or shaving of the abdominal skin followed by either 3) topical administration of FITC in acetone; 4) topical administration of FITC in acetone and olive oil; 5) topical administration of FITC in acetone and DMSO diluted in phosphate buffered saline (PBS); or 6) topical administration of FITC in acetone and dibutyl phthalate. The draining inguinal lymph nodes were then examined for immigrant dendritic cells by immunofluorescent flow cytometry each day thereafter. Migratory Langerhans cells were identified by the presence of FITC and co-expression of high MHC class II molecules or by co-expression of the DEC 205 ligand for the monoclonal antibody, NLDC-145. Dendritic cell residents of the lymph nodes could be differentiated by their high expression of MHC class II molecules but lack of FITC, or by their lack of FITC but co-expression of the ligand for the dendritic cell-specific monoclonal antibody, 33D1. The uptake of FITC and the Langerhans cell response to migratory signals were observable in the draining lymph node as early as six hours after topical administration. However, 48–72 hours was required for maximal immigration of FITC-bearing Langerhans cells into the lymph node. FIG. 1 illustrates the effect of various treatment regimens on the total and FITC+ dendritic cells 2 days after treatment. […] Thus, dibutyl phthalate was a very potent migration inducer.
Compounds which are useful as inducers of immature dendritic cell migration may be screened using the standard FITC methods described for the data presented in FIGS. 1—3. C57BL6 mice are shaved on their abdomens and painted with 100–200 μl of the test solution, containing 5 mg/ml FITC in a 50/50 (v/v) mixture of acetone and the migration inducer (e.g. dibutyl phthalate). After 2 days, the draining inguinal lymph nodes are removed and the total number of dendritic cells (both FITC+ and FITC−) is determined by flow cytometry and MHC class II immunofluorescence or other markers specific for dendritic cells.
The antigen employed was FITC and the procedure was identical to that used for the experiments depicted in FIG. 1. Namely, FITC at 5 mg/ml was dissolved in a 50:50 solution of acetone and the test agents for migration induction. The test agents used in this experiment were: dibutylfumarate (Agent #1); diisooctylmaleate (Agent #2); and dibutyl-D-tartarate (Agent #3). The inguinal lymph nodes were examined 48 hrs later for the presence of FITC+ and FITC-dendritic cells as detailed previously.
The antigen used was FITC, which was applied topically to the shaved abdominal skin of C57BL/6 mice at 5 mg/ml in a 50:50 solution of dibutyl phthalate and acetone. Each of the applications was identical, with half of the mice in each group receiving the first application only (none) and half receiving the first application followed by a second application at the specified interval (14 days or 21 days) after the first application. The inguinal lymph node cells were examined by flow cytometry for FITC+ dendritic cells, as detailed previously, 48 hrs after each treatment.

[2] = test system: dendritic cells in draining lymph node; assay: Antigen-bearing dendritic cells in lymph nodes after injection of soluble protein or peptide with or without topical migration inducer; type: in vivo, mice
Procedure: The injections were followed 2 hours later by topical application of dibutyl phthalate and acetone to the abdominal skin. The antigen-bearing dendritic cells that had migrated to the draining lymph node two days later were analyzed as described above and are shown in the upper right quadrant of each dot plot.
This was followed 2 hrs later by: A) no further treatment, or B) topical application of dibutyl phthalate and acetone to the abdominal skin. The antigen-bearing dendritic cells that had migrated to the draining lymph node two days later are shown in the upper right quadrant of each dot plot.
As stated previously, whether mature antigen-bearing dendritic cells will be encountered by and activate naive T cells in the lymph node is likely to depend not only on the number of antigen-bearing dendritic cells that enter the node, but also on the density of MHC:peptide complexes expressed on their membranes.

[3] = test system: dendritic cells in draining lymph node; assay: Antigen-bearing dendritic cells in lymph node after aqueous antigen applied to skin with DBP and acetone; type: in vivo; conditions: aqueous solution applied to the skin with topical DBP and acetone (data not shown)
Source text: Similarly, when an aqueous solution of a […] peptide or OVA protein antigen was applied to the skin along with topical application of the migration inducer, DBP and acetone, no detectable antigen-bearing (i.e., K^b:[…] positive) dendritic cells appeared in the draining lymph node (data not shown).

E.G7-OVA tumor cells = assay: E.G7-OVA tumor growth after immunization with tumor antigen and migration inducer; type: in vivo, C57BL/6 mice; conditions: 50 μl of 1.25 mM OVA in HBSS injected, DBP in acetone topically an hour later; tumor inoculation one month later (FIG. 12)
Source text: The tumor cell, E.G7-OVA, is the C57BL/6 EL4 thymoma transfected with the complete gene for chicken ovalbumin (OVA). The transfected cell line expresses OVA protein, which is also processed naturally by E.G7-OVA cells into an eight amino acid peptide, OVA257-264, with the sequence […]. […] Based on the positive results using FITC, the inventors followed a similar protocol in an attempt to induce immunity to the E.G7-OVA tumor by topical administration of the well-characterized, synthetic […] tumor-associated peptide.
C57BL/6 mice were treated as follows: 1) shaving alone; 2) topical administration of acetone and dibutyl phthalate; 3) topical administration of […] (240 μg/ml) in DMSO diluted in PBS, followed in 5 hours by acetone and dibutyl phthalate; and 4) topical administration of […] (240 μg/ml) in acetone and dibutyl phthalate. All mice were subsequently injected subcutaneously with 5×10^5 E.G7-OVA cells (5-times the minimal tumorogenic dose). Tumor-specific immunity was monitored by measuring the size of the developing tumor.
The mucous membranes lack the tough barrier posed by the stratum corneum of the skin. […] The EL4 parent tumor cell line, lacking chicken ovalbumin, was used as a negative control; no immunity against the EL4 tumor cells was seen. Thus, the inventors' hypothesis regarding penetration of the stratum corneum was confirmed; the […] peptide was not effectively reaching the immature dendritic cells, known as Langerhans cells, underlying the stratum corneum.
To enhance the effectiveness of cutaneous topical administration of peptide, […] was dissolved in DMSO and applied to the skin without further dilution. Dibutyl phthalate in a 50:50 mixture with acetone was applied to the same site 5 hr later. All mice were subsequently injected subcutaneously with 5×10^5 E.G7-OVA cells. The results shown in FIG. 6 indicate that the peptide in concentrated DMSO was apparently able to traverse the stratum corneum, effectively gaining access to the epidermal Langerhans cells. […] Thus, the tumor-specific peptide, […], in concentrated DMSO, penetrated the stratum corneum in sufficient concentration to be incorporated into the MHC class I molecule K^b on epidermal Langerhans cells, and in the presence of the migration inducer, dibutyl phthalate, was effectively presented to CD8+ CTLs in the draining lymph nodes.
To confirm the immunogenicity of the disclosed treatment, groups of 10 C57BL/6 mice were injected with 50 μl of 1.25 mM OVA protein in HBSS, with HBSS alone, or with nothing. This was followed an hour later by topical application of DBP in acetone or with nothing. One month later, the mice were inoculated subcutaneously with 5×10^5 EL4 tumor cells or with 5×10^5 E.G7-OVA tumor cells and subsequent tumor growth was measured.

[4] = 1st treatment day 1, 2nd none, assay day 16
[5] = 1st treatment day 1, 2nd none, assay day 23
[6] = 1st treatment day 1, 2nd treatment day 14, assay day 16
[7] = 1st treatment day 1, 2nd treatment day 21, assay day 23
[8] = FITC 5 mg/ml in 50:50 dibutyl phthalate and acetone, 1st treatment day 1, 2nd none, assay day 2
[9] = 20 μl of 0.5 mM in HBSS injected, dibutyl phthalate and acetone 2 hours later, two days later

## CCCCOC(=O)/C=C/C(=O)OCCCC [Test Agent #1, dibutylfumarate]
[1]
  Amt. Antigen/DC (mean fluorescence intensity of the dendritic cells): 994 arbitrary units
  Total DC (FITC+ plus FITC- dendritic cells per lymph node): 10,088 cells per lymph node
  Antigen^+ DC (FITC+ MHC class II^Hi cells per lymph node): 4,242 cells per lymph node

## C[S+](C)[O-] [DMSO, dimethylsulfoxide]
[1]
  effect on FITC+ and total dendritic cell migration into the lymph node: no enhancement

## CC(C)CCCCCOC(=O)/C=C\C(=O)OCCCCCC(C)C [Test Agent #2, diisooctylmaleate]
[1]
  Amt. Antigen/DC (mean fluorescence intensity of the dendritic cells): 1032 arbitrary units
  Total DC (FITC+ plus FITC- dendritic cells per lymph node): 7,927 cells per lymph node
  Antigen^+ DC (FITC+ MHC class II^Hi cells per lymph node): 5,340 cells per lymph node

## CCCCOC(=O)[C@@H](O)[C@H](O)C(=O)OCCCC [DBT, dibutyl-D-tartarate]
[1]
  Amt. Antigen/DC (mean fluorescence intensity of the dendritic cells): 364 arbitrary units
  Total DC (FITC+ plus FITC- dendritic cells per lymph node): 29,050 cells per lymph node
  Antigen^+ DC (FITC+ MHC class II^Hi cells per lymph node): 14,175 cells per lymph node

## CCCCOC(=O)c1ccccc1C(=O)OCCCC [dibutyl phthalate]
[1]; [4]
  Antigen-bearing Dendritic Cells/Node: 1,776
  Cells per Lymph Node: 4.52 × 10^6
[1]; [5]
  Antigen-bearing Dendritic Cells/Node: 0
  Cells per Lymph Node: 3.87 × 10^6
[1]; [6]
  Antigen-bearing Dendritic Cells/Node: 99,840
  Cells per Lymph Node: 1.28 × 10^7
[1]; [7]
  Antigen-bearing Dendritic Cells/Node: 49,203
  Cells per Lymph Node: 6.93 × 10^6
[1]; [8]
  Antigen-bearing Dendritic Cells/Node: 64,220
  Cells per Lymph Node: 6.76 × 10^6
[1]; by 12 hours after FITC in acetone and dibutyl phthalate (FIG. 2)
  FITC+ Langerhans cells present in the lymph node: High numbers
[1]; five days after topical FITC in acetone and dibutyl phthalate (FIG. 3)
  increase of lymph node cell population over baseline levels: approximately 7.2 fold
[1]
  effect on FITC+ and total dendritic cell migration into the lymph node: striking effect

B1: OVA: Chicken ovalbumin, a 40 kDa protein used as prototypic experimental antigen (protein, UniProt P01012 2-386, looked up)
Ovalbumin: GSIGAASMEFCFDVFKELKVHHANENIFYCPIAIMSALAMVYLGAKDSTRTQINKVVRFDKLPGFGDSIEAQCGTSVNVHSSLRDILNQITKPNDVYSFSLASRLYAEERYPILPEYLQCVKELYRGGLEPINFQTAADQARELINSWVESQTNGIIRNVLQPSSVDSQTAMVLVNAIVFKGLWEKAFKDEDTQAMPFRVTEQESKPVQMMYQIGLFRVASMASEKMKILELPFASGTMSMLVLLPDEVSGLEQLESIINFEKLTEWTSSNVMEERKIKVYLPRMKMEEKYNLTSVLMAMGITDVFSSSANLSGISSAESLKISQAVHAAHAEINEAGREVVGSAEAGVDAASVSEEFRADHPFLFCIKHIATNAVLFFGRCVSP
[2]; 20 μl of 0.5 mM in HBSS injected at two sites in abdominal skin, dibutyl phthalate and acetone topically 2 hours later, two days later
  Total Cells per Lymph Node: 8.8 × 10^6
[2]; [9]
  Dendritic Cells per Lymph Node: 137,456
  K^b:SIINFEKL^+ DC per LymphNode: 61,424
[2]; K^b:SIINFEKL+ DC versus HBSS injection
  Enhancement: 31×
[2]; injection followed by topical induction of migration, two days later
  increase in the number of antigen-bearing dendritic cells in the draining lymph nodes: 31 fold
[3]
  antigen-bearing (K^b:SIINFEKL positive) dendritic cells in the draining lymph node: no detectable
E.G7-OVA tumor cells
  tumor protection against E.G7-OVA: tumor protection
